Our source for the IC50 values is ChEMBL document CHEMBL1138819, “Synthesis and biological evaluation of pteridine and pyrazolopyrimidine based adenosine kinase inhibitors” (Bioorg Med Chem Lett, 2004).

A value given as a limit tells only on which side of the number the result lay.

The target of this experiment is Adenosine kinase (Homo sapiens, UniProt P55263). The experiment in a line: In vitro inhibitory concentration against Adenosine kinase in cycstolic assay.
Chain of Adenosine kinase (P55263 whole entry): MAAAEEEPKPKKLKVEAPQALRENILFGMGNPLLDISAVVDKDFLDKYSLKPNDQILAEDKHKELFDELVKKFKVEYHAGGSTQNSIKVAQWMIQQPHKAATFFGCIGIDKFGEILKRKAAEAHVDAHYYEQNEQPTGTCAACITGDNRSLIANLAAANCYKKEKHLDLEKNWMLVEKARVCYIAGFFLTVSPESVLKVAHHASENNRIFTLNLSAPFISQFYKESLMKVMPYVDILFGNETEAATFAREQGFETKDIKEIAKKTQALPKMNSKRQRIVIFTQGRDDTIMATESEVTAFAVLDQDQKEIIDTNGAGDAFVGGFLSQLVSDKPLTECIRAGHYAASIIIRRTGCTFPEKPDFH
For the compound `CN(C)c1ccc(C#Cc2ncnc3c2c(-c2cccc(Br)c2)nn3C)cn1`, the IC50 (usually the concentration needed to halve the response being measured) turned out to be 7.5 nM. In the case of `Cn1nc(-c2cccc(Br)c2)c2c(C#Cc3ccc(N4CCOCC4)nc3)ncnc21`, the midpoint of inhibition, the IC50, lay at 82 nM. Under `Brc1cccc(-c2[nH]nc3ncnc(C#Cc4ccc(N5CCOCC5)nc4)c23)c1` stands 22 nM; under `Nc1ncnc2cc(-c3ccc(N4CCOCC4)nc3)n(Cc3ccccc3)c12`, above 1000 nM. Under `CN(C)c1ccc(C#Cc2ncnc3n[nH]c(-c4ccccc4)c23)cn1` stands 100 nM; under `c1ccc(CCCNc2ncnc3nc(-c4ccc(N5CCOCC5)nc4)cnc23)cc1`, 72 nM; under `Brc1cccc(-c2nn(Cc3ccccc3)c3ncnc(C#Cc4ccc(N5CCOCC5)nc4)c23)c1`, above 1000 nM. In turn, `CN(C)c1ccc(C#Cc2[nH]cnc3nnc(-c4cccc(Br)c4)c2-3)cn1` showed an IC50 of 75 nM. Under `c1ccc(CCNc2ncnc3nc(-c4ccc(N5CCOCC5)nc4)cnc23)cc1` stands 120 nM. Under `Nc1ncnc2nc(-c3ccc(N4CCOCC4)nc3)cnc12` stands 460 nM; under `c1ccc(CCCCNc2ncnc3nc(-c4ccc(N5CCOCC5)nc4)cnc23)cc1`, 82 nM. Under `c1ccc2c(CCNc3ncnc4nc(-c5ccc(N6CCOCC6)nc5)cnc34)c[nH]c2c1` stands 300 nM. For the compound `Nc1ncnc(C#Cc2ccc(N3CCOCC3)nc2)c1Cc1cccc(Br)c1`, it took 22 nM to reach half-maximal inhibition (IC50). `CN(Cc1ccccc1)c1c(N)ncnc1C#Cc1ccc(N2CCOCC2)nc1` showed an IC50 of 30 nM.
